Experimental findings from ChEMBL document CHEMBL4813925, “Antibacterial Drimane Sesquiterpenes from Aspergillus ustus” (J Nat Prod, 2021) are described below.

The test system of data set [1] is Staphylococcus aureus. Kind of data set: Antibacterial activity against multidrug-resistant Staphylococcus aureus ATCC BAA-44 assessed as bacterial growth inhibition by CLSI protocol based microbroth dilution method. The class given is functional.
For data set [2], the system named is Enterococcus faecium. Kind of data set: Antibacterial activity against vancomycin-resistant Enterococcus faecium ATCC 700221 assessed as bacterial growth inhibition by CLSI protocol based microbroth dilution method. The class given is functional.
Data set [3] deals with Bacillus subtilis. The data set is described as follows: Antibacterial activity against Bacillus subtilis ATCC 49343 assessed as bacterial growth inhibition by CLSI protocol based microbroth dilution method. The class given is functional.
In data set [4] the test system is HCT-116. Kind of data set: Cytotoxicity against human HCT-116 cells by MTT assay. The class given is cell-based.
The test system of data set [5] is Staphylococcus aureus. Kind of data set: Synergistic antibacterial activity against multidrug-resistant Staphylococcus aureus ATCC BAA-44 assessed as coefficient of drug interaction in presence of ustusoic-acidB. The class given is functional.
Data set [6] concerns Staphylococcus aureus. The data set is described as follows: Synergistic antibacterial activity against multidrug-resistant Staphylococcus aureus ATCC BAA-44 assessed as bacterial growth inhibition in presence of Stromemycin. The class given is functional.
Data set [7] concerns Enterococcus faecium. The data set is described as follows: Synergistic antibacterial activity against vancomycin-resistant Enterococcus faecium ATCC 700221 assessed as bacterial growth inhibition in presence of Stromemycin. The class given is functional.
The test system of data set [8] is Candida albicans. The data set is described as follows: Antifungal activity against Candida albicans ATCC 90027 assessed as fungal growth inhibition by CLSI protocol based microbroth dilution method. The class given is functional, organism-based. (In general: In broth dilution the organism is exposed to a series of concentrations in liquid medium.)
In data set [9] the test system is Bacillus subtilis. Kind of data set: Synergistic antibacterial activity against Bacillus subtilis ATCC 49343 assessed as bacterial growth inhibition in presence of Stromemycin. The class given is functional.
For data set [10], the system named is Bacillus subtilis. Kind of data set: Synergistic antibacterial activity against Bacillus subtilis ATCC 49343 assessed as coefficient of drug interaction in presence of ustusoic-acidB. The class given is functional.
Data set [11] concerns Enterococcus faecium. Kind of data set: Synergistic antibacterial activity against vancomycin-resistant Enterococcus faecium ATCC 700221 assessed as coefficient of drug interaction in presence of ustusoic-acidB. The class given is functional.
The test system of data set [12] is Staphylococcus aureus. Kind of data set: Synergistic antibacterial activity against multidrug-resistant Staphylococcus aureus ATCC BAA-44 assessed as bacterial growth inhibition in presence of ustusoic-acidB. The class given is functional.
For data set [13], the system named is Bacillus subtilis. The data set is described as follows: Synergistic antibacterial activity against Bacillus subtilis ATCC 49343 assessed as coefficient of drug interaction in presence of Stromemycin. The class given is functional.
Data set [14] concerns Enterococcus faecium. The data set is described as follows: Synergistic antibacterial activity against vancomycin-resistant Enterococcus faecium ATCC 700221 assessed as bacterial growth inhibition in presence of ustusoic-acidB. The class given is functional.
The subject of data set [15] is Enterococcus faecium. The data set is described as follows: Synergistic antibacterial activity against vancomycin-resistant Enterococcus faecium ATCC 700221 assessed as coefficient of drug interaction in presence of Stromemycin. The class given is functional.
Data set [16] relates to Bacillus subtilis. The data set is described as follows: Synergistic antibacterial activity against Bacillus subtilis ATCC 49343 assessed as bacterial growth inhibition in presence of ustusoic-acidB. The class given is functional.
For data set [17], the system named is Staphylococcus aureus. The data set is described as follows: Synergistic antibacterial activity against multidrug-resistant Staphylococcus aureus ATCC BAA-44 assessed as coefficient of drug interaction in presence of Stromemycin. The class given is functional.

SMILES strings stand for the structures. In brackets after ≈: the same amount, converted by molar mass. Activity calls are given as the source filed them. No cut-off for these calls is given here.

Take `C/C=C/C=C/C=C/C(=O)O[C@@H]1C=C(CO)[C@](O)(C(=O)O)[C@@]2(C)CCCC(C)(C)[C@H]12`: the MIC in data set [1] (read-out: MIC) was above 128 µg/mL; in data set [2], 128 µg/mL (≈ 316 µM); in data set [3] it was 64 µg/mL (≈ 158 µM).

As for `CN[C@H](CC(C)C)C(=O)N[C@H]1C(=O)N[C@@H](CC(N)=O)C(=O)N[C@H]2C(=O)N[C@H]3C(=O)N[C@H](C(=O)N[C@H](C(=O)O)c4cc(O)cc(O)c4-c4cc3ccc4O)[C@H](O)c3ccc(c(Cl)c3)Oc3cc2cc(c3O[C@@H]2O[C@H](CO)[C@@H](O)[C@H](O)[C@H]2O[C@H]2C[C@](C)(N)[C@H](O)[C@H](C)O2)Oc2ccc(cc2Cl)[C@H]1O` [VANCOMYCIN], in [1] (read-out: MIC100), the MIC was found to be 125 µg/mL (≈ 86.3 µM).

For orientation: MIC99 means the lowest concentration that inhibits either 99% of growth or 99% of the strains tested, depending on the study. As for `O=C(N[C@H](CO)[C@H](O)c1ccc([N+](=O)[O-])cc1)C(Cl)Cl` [CHLORAMPHENICOL], in data set [3], the MIC99 worked out at 125 µg/mL (≈ 387 µM).

Turning to `C/C=C/C=C/C=C/C(=O)O[C@@H]1C=C(C=O)[C@](O)(C(=O)O)[C@@]2(C)CCCC(C)(C)[C@H]12`, the MIC is above 128 µg/mL in data set [1] (read-out: MIC); 64 µg/mL in [6]; 67 µg/mL (≈ 166 µM) in data set [2]; 38 µg/mL (≈ 94.4 µM) in data set [3]; 32 µg/mL in data set [7]; 8 µg/mL in [9]. For the same compound, in data set [4], the Activity result was “Non-Toxic”. The CI in [5] was determined as 0.00014; in [10], 0.0009; in data set [11], 0.00013. Moreover, the outcome in data set [8] was inactive.

On to `O=C1CN(/N=C/c2ccc([N+](=O)[O-])o2)C(=O)N1` [NITROFURANTOIN], for which, in [2], the MIC99 is 125 µg/mL (≈ 525 µM).

With `CCC/C=C/C=C/CCc1cc(OC(=O)c2c(CC/C=C/C=C/CCC)cc(O)c([C@@H]3O[C@H](CO)[C@@H](O)[C@H](O)[C@H]3O)c2O)cc(O)c1C(=O)O`, the MIC was above 128 µg/mL in data set [1] (read-out: MIC); 64 µg/mL in data set [12]; above 128 µg/mL in data set [2]; 64 µg/mL (≈ 91.8 µM) in data set [3]; 32 µg/mL in data set [14]; 8 µg/mL in data set [16]. Also, the Activity entry in [4] was “Non-Toxic”. The CI is 0.0009 in [13], 0.00013 in [15] and 0.00014 in data set [17]. The outcome in data set [8] was inactive.
